Results as given in patent US20260306500A1, “METHOD OF INHIBITING ADENOSINE TRIPHOSPHATE SECRETION, METHOD OF INHIBITING HEPATIC STELLATE CELL ACTIVATION, METHOD OF DEACTIVATING HEPATIC STELLATE CELL, METHOD OF TREATING HEPATIC FIBROSIS, METHOD OF TREATING NON-ALCOHOLIC STEATOHEPATITIS, AND METHOD OF TREATING PSORIASIS” (Kurume University, priority 2023, published 2026).
Counter-ions that a name gives are not always drawn.

What was measured:
[1] = system: chromaffin granule membrane; assay: ATP transport (uptake of radiolabeled ATP) in chromaffin granule membrane vesicles; format: biochemical, cattle; settings: role: inhibitor, MANT-ATP
Description: (§1) Chromaffin granule membranes were prepared from adrenal glands collected from slaughtered cattle according to Reference A (Nathan Nelson et al., 1988, Chromaffin Granule Proton Pump, Methods in Enzymology, 157, 619-633). Chromaffin granule membranes prepared by sucrose density gradient centrifugation were suspended in 2 ml of SME buffer (20 mM MOPS-tris (pH 7.0), 0.3 M sucrose, 5 mM EDTA, 10 μg/ml leupeptin, and 10 μg/ml pepstatin)+25% glycerol, and the resulting suspension was aliquoted and stored at −80° C. Under these conditions, the ATP transport activity, the V-ATPase activity, and the catecholamine transport activity remain fully active for at least one year.
An ATP transport inhibition experiment for the chromaffin granule membrane was carried out according to Reference B (Yoshinori Moriyama et al., 2022, Is the vesicular nucleotide transporter a molecular target of eicosapentaenoic acid?, Frontiers in Pharmacology, 103389). About 20 μg of chromaffin granule membranes were added to 0.5 ml of measurement buffer (20 mM MOPS-tris (pH 7.0), 0.3 M sucrose, 5 mM potassium chloride, 5 mM magnesium acetate, 5 mM creatine phosphate, 10 units of creatine kinase, and 1 mM 3[H]-ATP [15 KBq/assay]), followed by incubation at 30° C. for 1 hour. Through a Millipore MCE membrane filter with a pore size […], 0.2 ml of the reaction liquid was filtered by suction. Thereafter, the filter was washed with 10 ml of 20 mM MOPS-tris (pH 7.0), 0.3 M sucrose, 5 mM potassium chloride, and 5 mM magnesium acetate, and dissolved in 10 ml of Clear-sol II (manufactured by Nacalai Tesque, Inc.). The radioactivity was then measured using a liquid scintillation counter (N=3).
The reaction was initiated by adding 50 mM ^3[H]-ATP to a final concentration of 1 mM. The 50 mM ^3[H]-ATP was prepared by mixing an ATP-tris solution (manufactured by Sigma-Aldrich) with [2,8-^3H]adenosine triphosphate tetrasodium salt (26.0 Ci/mmol) (manufactured by New England Nuclear). PEP was used as a test reagent, and pyruvic acid was used as a negative control. Five minutes before the addition of ATP, PEP or pyruvic acid, as a solution in 20 mM MOPS-tris (pH 7.0), 0.3 M sucrose, 5 mM potassium chloride, and 5 mM magnesium acetate, was added to the measurement liquid to a final PEP concentration of 0.02, 0.05, 0.1, 0.2, 0.4, or 1 mM, or to a final pyruvic acid concentration of 0.5 or 1 mM.
(§2) Chromaffin granule membrane vesicles were prepared in the same manner as in Example 5, and uptake of radiolabeled ATP into the vesicles was measured. Transport activity of catecholamine (dopamine) and ATP-dependent proton transport by V-ATPase were also measured in the same manner as in Example 5.

[2] = system: catecholamine transport of chromaffin granule membranes; assay: Catecholamine (dopamine) transport in chromaffin granule membranes; format: biochemical, cattle; settings: role: inhibitor; MANT-ATP, N=3 (FIG. 11)
Description: as §1
A catecholamine transport inhibition experiment was carried out in the same manner as the ATP transport experiment except that the experiment used a measurement liquid containing 20 mM MOPS-tris (pH 7.0), 0.1 M sucrose, 0.1 M potassium chloride, 5 mM magnesium acetate, and about 5 μg of chromaffin granule membranes. To 0.5 ml of the measurement liquid, 2 mM ATP was added, and the resulting mixture was incubated at 30° C. for about 5 minutes, followed by addition of 3[H]-dopamine thereto to a final concentration of 10 μM. After further incubation at 30° C. for 15 minutes, 0.2 ml of the reaction liquid was subjected to suction filtration through a Millipore MCE membrane filter with a pore size of 0.45 μm, and the radioactivity on the filter was measured (N=3). The substrate, 3[H]-dopamine, was prepared by mixing 3,4-[RING-2,5,6-^3H]dihydroxyphenylethylamine (dopamine) (30 Ci/mmol) (manufactured by New England Nuclear) with dopamine hydrochloride (manufactured by LKT Laboratories) such that a final concentration of […] was achieved during the use.
as §2

[3] = molecular target: T1, V-ATPase (Bos taurus, UniProt P31404+P31408); assay: ATP-dependent proton transport by V-ATPase (acridine orange fluorescence quenching); format: biochemical, cattle
T1 construct: Chromaffin granule membranes were prepared from adrenal glands collected from slaughtered cattle; from tissue; host or cells: cattle adrenal glands, chromaffin granule membranes (sucrose density gradient)
T1 sequence (P31404 whole entry, looked up): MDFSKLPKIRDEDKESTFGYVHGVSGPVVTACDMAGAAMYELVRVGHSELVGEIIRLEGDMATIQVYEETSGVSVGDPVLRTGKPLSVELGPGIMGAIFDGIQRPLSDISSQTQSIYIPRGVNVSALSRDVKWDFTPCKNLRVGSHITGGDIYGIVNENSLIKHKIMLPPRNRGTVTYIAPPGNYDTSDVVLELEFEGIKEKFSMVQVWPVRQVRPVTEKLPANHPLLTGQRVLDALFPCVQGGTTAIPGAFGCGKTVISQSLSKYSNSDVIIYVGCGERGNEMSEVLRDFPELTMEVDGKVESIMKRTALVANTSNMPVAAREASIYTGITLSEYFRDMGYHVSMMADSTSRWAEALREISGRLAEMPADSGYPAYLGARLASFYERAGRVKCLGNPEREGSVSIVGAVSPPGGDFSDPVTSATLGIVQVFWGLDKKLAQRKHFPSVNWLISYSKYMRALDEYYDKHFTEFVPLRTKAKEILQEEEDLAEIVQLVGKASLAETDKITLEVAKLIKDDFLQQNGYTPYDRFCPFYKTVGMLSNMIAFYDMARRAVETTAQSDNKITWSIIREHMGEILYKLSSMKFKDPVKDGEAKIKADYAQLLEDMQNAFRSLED
T1 sequence (P31408 whole entry, looked up): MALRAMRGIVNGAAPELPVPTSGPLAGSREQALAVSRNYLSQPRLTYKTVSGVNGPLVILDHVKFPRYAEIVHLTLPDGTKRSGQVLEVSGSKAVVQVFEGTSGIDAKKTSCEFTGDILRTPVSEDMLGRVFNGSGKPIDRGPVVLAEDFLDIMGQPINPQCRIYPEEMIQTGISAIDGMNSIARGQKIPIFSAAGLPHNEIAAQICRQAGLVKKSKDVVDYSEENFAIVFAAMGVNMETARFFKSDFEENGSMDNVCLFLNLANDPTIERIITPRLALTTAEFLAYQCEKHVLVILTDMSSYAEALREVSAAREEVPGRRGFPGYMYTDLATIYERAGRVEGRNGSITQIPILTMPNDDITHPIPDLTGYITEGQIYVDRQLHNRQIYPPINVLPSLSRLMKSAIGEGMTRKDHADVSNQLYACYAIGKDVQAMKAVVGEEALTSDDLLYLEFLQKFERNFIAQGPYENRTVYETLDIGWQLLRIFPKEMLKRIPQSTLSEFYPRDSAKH
Description: as §1
ATP-dependent proton transport by V-ATPase was measured according to Reference B. Proton transport activity was measured using a spectrofluorometer at excitation wavelength of 492 nm and a fluorescence wavelength 540 nm, wherein fluorescence quenching of acridine orange was used as an index (N=2). The transmembrane potential generated was measured using a spectrofluorometer at an excitation wavelength of 580 nm and a fluorescence wavelength of 630 nm, wherein fluorescence quenching of oxonol-V was used as an index (N=2). The acridine measurement liquid (2 ml) contained 20 mM MOPS-tris (pH 7.0), 0.2 M sucrose, 0.1 M potassium chloride, 5 mM magnesium acetate, 0.2 μg valinomycin, 2 μM acridine orange, and about 20 μg of chromaffin granules. The oxonol-V measurement liquid (2 ml) contained 20 mM MOPS-tris (pH 7.0), 0.3 M sucrose, 5 mM magnesium acetate, 5 μM oxonol-V, and about 20 μg of chromaffin granules.
as §2

[4] = system: ATP-loaded vesicles of keratinocytes; assay: Accumulation of MANT-ATP in granules of keratinocytes (confocal microscopy); format: cell-based, human; settings: 0.3 mM MANT-ATP, control without imeglimin (FIG. 13)
Description: Keratinocytes were cultured in the same manner as in Example 8. Keratinocytes were cultured at 4×10^4 cells/ml in a glass-bottom dish (35 mm, manufactured by Matsunami Glass Ind., Ltd.) at 37° C. in 5% CO2 for 2 days. The culture medium was then replaced with a medium supplemented with MANT-ATP (manufactured by Invitrogen) at a final concentration of 0.3 mM, and further incubation was performed for 4.5 hours. Subsequently, imeglimin was added thereto to a final concentration of 10 μM, and further incubation was performed at 37° C. in 5% CO2 for 19 hours. Thereafter, the cells were washed twice with HBSS (manufactured by Gibco) and observed using an inverted confocal laser microscope (FV-1000 OSR, manufactured by Olympus Corporation).

[5] = system: human epidermal keratinocytes; assay: ATP secretion from human epidermal keratinocytes promoted by ionomycin; format: cell-based
Description: Human epidermal keratinocytes (Cryopreserved HEK, Lot 1758, Cell Applications Inc.) were cultured using an Epivita Keratinocyte Growth Medium Kit according to the manufacturer's instructions. The procedure was as follows. A supplement medium was added to a hydrocortisone-containing basal medium included in the medium preparation kit to prepare a complete medium. The medium in the dish was removed by aspiration. The cells were washed with 5 ml of BSS (Gbco), and then the BSS was removed by aspiration. After addition of 5 to 6 ml of trypsin/EDTA solution (Gbco), the dish was incubated at 37° C. for 2 minutes. After addition of 5 ml of trypsin neutralization solution, the resulting cell suspension was transferred into two 15-ml Falcon tubes, and centrifuged at 200×g for 5 minutes. The supernatant was removed by aspiration, and the pelleted cell cluster was suspended in 2 ml of the medium at 4.5×10^5 cells/ml. An aliquot of the resulting cell suspension was cryopreserved, while another aliquot was cultured and subjected to measurement.
ATP secretion by human epidermal keratinocytes (hereinafter referred to as “keratinocytes”) was measured. Regarding control solutions, Krebs-Ringer HEPES supplemented with 0.2% BSA and 25 mM glucose (hereinafter also referred to as “Krebs/Iono(−)”) was used as a negative control, and a solution prepared by adding 5 μM ionomycin to this solution (hereinafter also referred to as “Krebs/Iono(+)”) was used as a positive control for ATP secretion. Ionomycin is a Ca^2+ ionophore. Addition of ionomycin to cells is known to promote influx of extracellular Ca^2+ into the cells to increase the intracellular Ca^2+ concentration, resulting in enhancement of ATP secretion. Test solutions were prepared by adding clodronate to Krebs/Iono(−) or Krebs/Iono(+) to a final concentration of 0.1 μM (hereinafter also referred to as “Clo/Iono(−)” or “Clo/Iono(+)”, respectively) (N=3).
Keratinocytes were cultured at 2.5×10^4 cells/well in a 24-well plate at 37° C. in 5% CO2 for 4 days. The medium was removed by aspiration, replaced with Krebs/Iono(−) or Clo/Iono(−), and incubated at 37° C. for 6 hours. These solutions were then removed by aspiration, and the content of each well incubated with Krebs/Iono(−) was replaced with 300 μl of a control solution (Krebs/Iono(−) or Krebs/Iono(+)), while the content of each well incubated with Clo/Iono(−) was replaced with 300 μl of a test solution (Clo/Iono(−) or Clo/Iono(+)). After further incubation at 37° C. for 20 minutes, 200 μl of the supernatant was collected. The collected supernatant was immediately treated on a heat block at 95° C. for 10 minutes, to inactivate ectonucleotidase. ATP in the supernatant was quantified using a Dojindo ATP assay kit−Luminescence (manufactured by Dojindo Laboratories).
Keratinocytes were cultured in the same manner as in Example 1, and ATP secretion from the keratinocytes was measured. Krebs/Iono(−), or a solution prepared by adding 10 μM imeglimin, 0.1 μM eicosapentaenoic acid (EPA), 1 μM EPA, or 10 μM clodronate to Krebs/Iono(−) was used (N=4).
After culturing keratinocytes, the medium was removed by aspiration, and replaced with Krebs/Iono(−), or Krebs/Iono(−) supplemented with 10 μM imeglimin, 0.1 μM EPA, 1 μM EPA, or 10 μM clodronate, followed by incubation for 6 hours. Subsequently, the solution was replaced with either a control solution (Krebs/Iono(−) or Krebs/Iono(+)) or a test solution (Krebs/Iono(+) supplemented with 10 μM imeglimin, 0.1 μM EPA, 1 μM EPA, or 10 μM clodronate), followed by incubation at 37° C. for 20 minutes and then collection of 200 μl of the supernatant. The collected supernatant was immediately treated on a heat block at 95° C. for 10 minutes to inactivate ectonucleotidase. ATP in the supernatant was quantified using a Dojindo ATP assay kit—Luminescence (manufactured by Dojindo Laboratories). […]

[6] = system: human epidermal keratinocytes; assay: ATP secretion from keratinocytes upon LPS stimulation; format: cell-based; settings: 10 μM, 18 hours, 10 μg/ml LPS, N=8 (FIG. 8)
Description: Keratinocytes were cultured in the same manner as in Example 1. Keratinocytes were cultured at 2.5×10^4 cells/well in a 24-well plate at 37° C. in 5% CO2 for 4 days. The medium was replaced with a test solution (Hanks' balanced salt solution (HBSS) (manufactured by Gibco) supplemented with imeglimin, metformin, or clodronate), and then incubation was performed at 37° C. in 5% CO2 for 18 hours. Thereafter, LPS (10 μg/ml) was added thereto, and incubation was further carried out for 10 minutes, followed by collection of 200 μl of the supernatant. The supernatant was immediately treated on a heat block at 95° C. for 10 minutes, and ATP in the supernatant was quantified using an ATP Assay Kit−Luminescence (manufactured by Dojindo) (N=8).

[7] = system: VNUT; assay: Inhibitory effect on VNUT (data not shown)
[8] = system: V-ATPase; assay: Inhibitory effect on V-ATPase (data not shown)

SMILES	mode of inhibition of ATP transport by VNUT [1]	ATP transport ([1]; radiolabeled ATP, N=3 (FIG. 10))	IC50 ([1]; radiolabeled ATP, N=3 (FIG. 10), read-out: ID50 of ATP transport) [mM]	effect on catecholamine transport system [2]	effect on ATP-dependent proton transport by V-ATPase ([3]; role: inhibitor, MANT-ATP up to 100 μM, N=1 (FIG. 12))	quenching of acridine orange fluorescence ([3]; role: substrate, 0.1 mM MANT-ATP) [%]	total acridine orange fluorescence quenching ([3]; role: substrate, 0.1 mM MANT-ATP followed by addition of ATP) [%]	accumulation in the granules in keratinocytes [4]	ATP secretion inhibitory effect at low concentration ([5]; 0.1 μM, 6 h preincubation, ionomycin)	ATP secretion inhibitory effect at higher concentrations ([5]; up to 10 μM metformin)	LPS-stimulated ATP secretion [6]	inhibitory effect on VNUT [7]	inhibitory effect on V-ATPase [8]
CNc1ccccc1C(=O)O[C@H]1[C@@H](O)[C@H](n2cnc3c(N)ncnc32)O[C@@H]1COP(=O)(O)OP(=O)(O)OP(=O)(O)O [MANT-ATP, 2′/3′-O—(N-methyl-anthraniloyl)-adenosine-5′-triphosphate triethylammonium salt]	competitively inhibits	strongly inhibited ATP transport	~30	hardly affected	did not affect	34	61.8	accumulation of MANT-ATP in the granules					
CN(C)C(=N)NC(=N)N [metformin]									exhibit an ATP secretion inhibitory effect	decreased inhibitory effect at higher concentrations	almost completely inhibited	neither imeglimin nor metformin exhibited a strong inhibitory effect	neither imeglimin nor metformin exhibited a strong inhibitory effect
